These results are taken from patent US5858692A, “Polychlorinated biphenyls (PCB) immunoassay method, its components and a kit for use in performing the same” (ENSYS, Inc., priority 1995, dated 1999).

Bounds are passed on as bounds.

The assay relates to monoclonal F40-11G6 antibody (anti-PCB monoclonal antibody). Briefly: 1 ppm PCB immunoassay (competitive ELISA), cross-reactivity of compounds found at PCB sites or of similar structure. The class given is binding, Balb/c mice. To be noted: for PERCENT CROSS-REACTIVITY: calculated percent cross-reactivity in the 1 ppm PCB immunoassay; for CONCENTRATION GIVING A POSITIVE RESULT; SOIL EQUIVALENT / CON[…] A POSITIVE RESULT; SOIL EQUIVALENT: positive compared to the kit standard (AROCLOR 1248, 0.7 ppm) in the 1 ppm PCB immunoassay. The method, then: The immunoassay of the present invention is performed according to the following procedure. Monoclonal anti-PCB antibody is immobilized in an assay vessel, or other solid support, preferably to the bottom of a polystyrene tube, at a concentration, of from 0.005 to 20 μg/tube, preferably 0.1 to 0.4 μg/tube. The concentration and affinity of the antibody for the sample molecules and reporter reagent molecules directly influences the overall sensitivity of the final method.
Antibody coated tubes were prepared by passively coating polystyrene (12×75 mm, NUNC) tubes with the monoclonal F40-11G6 antibody diluted in PBS and incubating overnight.
10 g of a soil sample were placed in an extraction vial containing 20 mL of methanol and 5 steel pellets (6mm) and the vial and its contents shaken for 1 minute to disperse the soil particles and extract the PCB. The sample was then filtered to clarify the sample using a filter of glass fiber and 0.45μ Teflon. 45 uL of the clarified filtrate sample was mixed with 955 μl of 10 mM PBS (pH=7.4) and the resulting mixture added to lyophilized enzyme conjugate reagent (0.3 μg) and mixed. At the same time, 2×45 uL of the AROCLOR 1248 standard are similarly treated. The sample and the two standards were then poured into three identical antibody coated tubes, respectively, and the resulting solution mixed. The resulting solution was incubated for 10 minutes at ambient temperature and then washed 4× with a wash buffer (detergent-saline solution). 250 uL of tetramethylbenzidene solution (KP Laboratories, Cat. No. 50-76-02) was added along with 250 uL of hydrogen peroxide solution (KPL, Cat. No. 50-65-02) and the resultant solution mixed. After incubating for 2.5 minutes the color development reaction was stopped with 250 uL of stop solution (1M sulfuric acid).
The optical density (OD) of the test sample was compared to the OD of the AROCLOR 1248 standard (0.7 ppm) which was tested simultaneously with the sample. If the sample OD is less than the standard OD, the sample contains greater than 1 ppm PCBs. If the sample OD is greater than the standard OD, the sample contains less than 1 ppm PCBs. Other concentration ranges can be assessed by diluting the test samples with suitable diluents, as long as they are non-reactive with the components of the assay.
These compounds were tested for their reactivity with the present 1 ppm PCB immunoassay. […] Overall, the compounds were each less than 1% cross-reactive, with one exception at 2%, indicating high-specificity for PCBs in the present method.

For `Clc1ccc(Cl)c(Cl)c1` [1,2,4-TRICHLOROBENZENE], the “PERCENT CROSS-REACTIVITY” value is less than 1% and the “CONCENTRATION GIVING A POSITIVE RESULT; SOIL EQUIVALENT” value (from here on “CONCENTRATION GIVING A POSITIVE RESULT”) is 100-1,000 PPM.
On the same counts, the results for `Clc1cccc2ccccc12` [1-CHLORONAPHTHALENE] are less than 0.01% and > 10,000 PPM.
Taken in the same sequence, the figures for `Clc1cc(Cl)c(-c2ccc(-c3ccccc3)cc2)c(Cl)c1` [2,4,6-TRICHLOR-p-TERPHENYL] were less than 0.01% and > 10,000 PPM.
Taken in the same sequence, the figures for `Oc1c(Cl)cc(Cl)c2ccccc12` [2,4-DICHLORO-1-NAPTHOL] were 2% and 50 PPM.
Take `O=S(=O)(Oc1ccc(Cl)cc1Cl)c1ccccc1` [2,4-DICHLOROPHENYL BENZENESULFONATE]: the “PERCENT CROSS-REACTIVITY” value is less than 1% and the “CONCENTRATION GIVING A POSITIVE RESULT” value is given as 100-1,000 PPM.
With `O=C(O)COc1ccc(Cl)cc1Cl` [2,4-D], the “PERCENT CROSS-REACTIVITY” value is recorded as less than 0.1% and the “CONCENTRATION GIVING A POSITIVE RESULT” value is 1,000-10,000 PPM.
With `Clc1c2ccccc2c(Cl)c2ccccc12` [9,10-DICHLOROANTHRACENE, 9,10-DICHLORO-ANTHRACENE], the “PERCENT CROSS-REACTIVITY” value is less than 0.01% and the “CONCENTRATION GIVING A POSITIVE RESULT” value is recorded as > 10,000 PPM.
For the compound `c1ccccc1` [BENZENE], the “PERCENT CROSS-REACTIVITY” value is on record as less than 0.01% and the “CON[…] A POSITIVE RESULT; SOIL EQUIVALENT” value is given as > 10,000 PPM.
Regarding `COC(=O)c1cc(Oc2ccc(Cl)cc2Cl)ccc1[N+](=O)[O-]` [BIFENOX], the “PERCENT CROSS-REACTIVITY” value is given as less than 1% and the “CONCENTRATION GIVING A POSITIVE RESULT” value is reported as 100-1,000 PPM.
Regarding `Clc1c(Cl)c(Cl)c(Cl)c(Cl)c1Cl` [HEXACHLOROBENZENE], the “PERCENT CROSS-REACTIVITY” value is reported as less than 0.01% and the “CONCENTRATION GIVING A POSITIVE RESULT” value is listed as > 10,000 PPM.
For `ClCCl` [METHYLENE CHLORIDE], the “PERCENT CROSS-REACTIVITY” value is less than 0.01% and the “CON[…] A POSITIVE RESULT; SOIL EQUIVALENT” value is listed as > 10,000 PPM.
As for `c1ccc2ccccc2c1` [NAPHTHALENE], the “PERCENT CROSS-REACTIVITY” value is less than 0.01% and the “CONCENTRATION GIVING A POSITIVE RESULT” value is reported as > 10,000 PPM.
Regarding `Clc1ccc(C(c2ccccc2Cl)C(Cl)(Cl)Cl)cc1` (centres unmarked) [O,P-DDT], the “PERCENT CROSS-REACTIVITY” value is given as less than 0.01% and the “CONCENTRATION GIVING A POSITIVE RESULT” value is given as > 10,000 PPM.
Regarding `Clc1cc(Cl)c(Cl)c(Cl)c1Cl` [PENTACHLOROBENZENE], the “PERCENT CROSS-REACTIVITY” value was less than 0.01% and the “CONCENTRATION GIVING A POSITIVE RESULT” value was > 10,000 PPM.
Taken in the same sequence, the figures for `Oc1c(Cl)c(Cl)c(Cl)c(Cl)c1Cl` [PENTACHLOROPHENOL] were less than 0.01% and > 10,000 PPM.
Turning to `CC(Oc1cc(Cl)c(Cl)cc1Cl)C(=O)O` (centres unmarked) [SILVEX], the “PERCENT CROSS-REACTIVITY” value is less than 1% and the “CONCENTRATION GIVING A POSITIVE RESULT” value is 100-1,000 PPM.
In the case of `O=S(=O)(c1ccc(Cl)cc1)c1cc(Cl)c(Cl)cc1Cl` [TETRADIFON], the “PERCENT CROSS-REACTIVITY” value was less than 10% and the “CONCENTRATION GIVING A POSITIVE RESULT” value is on record as 10-100 PPM.
Take `ClC=C(Cl)Cl` [TRICHLOROETHYLENE]: the “PERCENT CROSS-REACTIVITY” value was less than 0.01% and the “CONCENTRATION GIVING A POSITIVE RESULT” value was > 10,000 PPM.
As for XYLENES, the “PERCENT CROSS-REACTIVITY” value is less than 0.01% and the “CONCENTRATION GIVING A POSITIVE RESULT” value is on record as > 10,000 PPM.
